According to ChEMBL document CHEMBL1201862, “PubChem BioAssay data set” (2004):
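Briefly, cells in 96-well plates were exposed to five compound concentrations for 48 h, and endpoints were estimated by linear interpolation. GI50 = concentration required for 50% inhibition of growth.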 Activity calls are given as the source filed them. No stated cut-off is given here; in the data, active = GI50 up to about 1.1 µM and inactive = higher.

Legend:
Experiment in all cases: growth of human tumour cells (NCI), 48 h
SK-OV-3 = test system: SK-OV-3
NCI/ADR-RES = test system: NCI/ADR-RES
SF-295 = test system: SF-295
K562 = test system: K562
BT-549 = test system: BT-549
U-251 = test system: U-251
COLO 205 = test system: COLO 205
A498 = test system: A498
M14 = test system: M14
HT-29 = test system: HT-29
HL-60 = test system: HL-60
MDA-MB-435 = test system: MDA-MB-435
HCT-116 = test system: HCT-116
UACC-62 = test system: UACC-62
NCI-H522 = test system: NCI-H522
Malme-3M = test system: Malme-3M
SNB-19 = test system: SNB-19
SW-620 = test system: SW-620
HCT-15 = test system: HCT-15
OVCAR-4 = test system: OVCAR-4

| Compound | GI50 (SK-OV-3) | GI50 (NCI/ADR-RES) | GI50 (SF-295) | GI50 (K562) | GI50 (BT-549) | GI50 (U-251) | GI50 (COLO 205) | GI50 (A498) | GI50 (M14) | GI50 (HT-29) | GI50 (HL-60) | GI50 (MDA-MB-435) | GI50 (HCT-116) | GI50 (UACC-62) | GI50 (NCI-H522) | GI50 (Malme-3M) | GI50 (SNB-19) | GI50 (SW-620) | GI50 (HCT-15) [µM] | GI50 (OVCAR-4) |
| --- | --- | --- | --- | --- | --- | --- | --- | --- | --- | --- | --- | --- | --- | --- | --- | --- | --- | --- | --- | --- |
| N=C(N)NS(=O)(=O)c1ccc(NC(=O)c2cccc3c(NNc4ccc(C(=O)O)cc4)c4ccccc4nc23)cc1 | 47.2 µM (inactive) | > 100 µM (inactive) | > 100 µM (inactive) | 50.1 µM (inactive) | > 100 µM (inactive) | 34.6 µM (inactive) | 65 µM (inactive) | 24.4 µM (inactive) | > 100 µM (inactive) | 41.4 µM (inactive) | 32.6 µM (inactive) | 95.7 µM (inactive) | 59 µM (inactive) | 70.1 µM (inactive) | 51.1 µM (inactive) | 93.1 µM (inactive) | 57.8 µM (inactive) | > 100 µM (inactive) | > 100 | > 100 µM (inactive) |
| CC1CN(CCO)CC(C)O1 (stereo not given) | > 100 µM (inactive) | > 100 µM (inactive) | > 100 µM (inactive) | > 100 µM (inactive) | > 100 µM (inactive) | > 100 µM (inactive) | > 100 µM (inactive) | > 100 µM (inactive) | > 100 µM (inactive) | > 100 µM (inactive) | > 100 µM (inactive) | > 100 µM (inactive) | > 100 µM (inactive) | > 100 µM (inactive) | > 100 µM (inactive) | > 100 µM (inactive) | > 100 µM (inactive) | > 100 µM (inactive) | > 100 | > 100 µM (inactive) |
| OC1C#CCSCC#C/C=C\1 (stereo not given) | > 100 µM (inactive) | 1.93 µM (inactive) | > 100 µM (inactive) | 17.9 µM (inactive) | > 100 µM (inactive) | > 100 µM (inactive) | 15.2 µM (inactive) | 76.6 µM (inactive) | > 100 µM (inactive) | 65.9 µM (inactive) | 23.6 µM (inactive) | 56 µM (inactive) | 62.1 µM (inactive) | > 100 µM (inactive) | 17.8 µM (inactive) | 47.1 µM (inactive) | > 100 µM (inactive) | 18.4 µM (inactive) | > 100 | > 100 µM (inactive) |
| OCCOCn1cc(Cn2ncc3c(SCc4ccccc4)ncnc32)nn1 | 61.5 µM (inactive) | 31.8 µM (inactive) | 45.1 µM (inactive) | 20.4 µM (inactive) | 26.9 µM (inactive) | 44.1 µM (inactive) | 31.3 µM (inactive) | 34.4 µM (inactive) | 27.3 µM (inactive) | 38.2 µM (inactive) | 13.7 µM (inactive) | 15.5 µM (inactive) | 34.7 µM (inactive) | 37.1 µM (inactive) | 25.4 µM (inactive) | 76.2 µM (inactive) | 85.7 µM (inactive) | 26.7 µM (inactive) | 37.4 | 59.3 µM (inactive) |
| COc1ccc(/C=C/C(=O)/C=C/c2ccc(OC)cc2)cc1 | > 100 µM (inactive) | 97.1 µM (inactive) | > 100 µM (inactive) | 31.6 µM (inactive) | 29.4 µM (inactive) | 23.7 µM (inactive) | 34.5 µM (inactive) | > 100 µM (inactive) | 21.1 µM (inactive) | 29.3 µM (inactive) | 20 µM (inactive) | 14.6 µM (inactive) | 11.2 µM (inactive) | > 100 µM (inactive) | 42.8 µM (inactive) | > 100 µM (inactive) | > 100 µM (inactive) | 23.7 µM (inactive) | 47.8 | 43.5 µM (inactive) |
| COC(=O)c1oc([N+](=O)[O-])c(Cl)c1Cl | 19 µM (inactive) | 13.4 µM (inactive) | 11.8 µM (inactive) | 2.56 µM (inactive) | 7.98 µM (inactive) | 8.11 µM (inactive) | 4.12 µM (inactive) | 15.1 µM (inactive) | 7.28 µM (inactive) | 16.5 µM (inactive) | 1.34 µM (inactive) | 7.8 µM (inactive) | 6.24 µM (inactive) | 8.47 µM (inactive) | 1.7 µM (inactive) | 7.43 µM (inactive) | 18.7 µM (inactive) | 4.07 µM (inactive) | 7.57 | 9.31 µM (inactive) |
| O=C1CCSCCC(=O)Nc2ccccc2N1 | > 100 µM (inactive) | > 100 µM (inactive) | > 100 µM (inactive) | > 100 µM (inactive) | > 100 µM (inactive) | > 100 µM (inactive) | > 100 µM (inactive) | > 100 µM (inactive) | > 100 µM (inactive) | > 100 µM (inactive) | > 100 µM (inactive) | > 100 µM (inactive) | > 100 µM (inactive) | > 100 µM (inactive) | > 100 µM (inactive) | > 100 µM (inactive) | > 100 µM (inactive) | > 100 µM (inactive) | > 100 | > 100 µM (inactive) |
| O=C1c2sccc2C(=O)c2c(CO)csc21 | 11.4 µM (inactive) | 3.63 µM (inactive) | 2.69 µM (inactive) | 7.01 µM (inactive) | 3.59 µM (inactive) | 6.03 µM (inactive) | 2.69 µM (inactive) | 13.7 µM (inactive) | 2.21 µM (inactive) | 3.3 µM (inactive) | 1.29 µM (inactive) | 1.94 µM (inactive) | 3.04 µM (inactive) | 2.52 µM (inactive) | 1.92 µM (inactive) | 1.91 µM (inactive) | 5.56 µM (inactive) | 6.98 µM (inactive) | 2.49 | 2.16 µM (inactive) |
| SCc1ccc(-c2ccc(CS)cc2)cc1 | 17.6 µM (inactive) | 7.16 µM (inactive) | 8.97 µM (inactive) | 4.07 µM (inactive) | 2.42 µM (inactive) | 15.1 µM (inactive) | 18 µM (inactive) | 36.5 µM (inactive) | 14.3 µM (inactive) | 26.9 µM (inactive) | 3.25 µM (inactive) | 5.74 µM (inactive) | 7.55 µM (inactive) | 14.9 µM (inactive) | 17.8 µM (inactive) | 16.9 µM (inactive) | 18.3 µM (inactive) | 22.2 µM (inactive) | 17.6 | 6.38 µM (inactive) |
